One data set deals with Melanocortin receptor 4 (Homo sapiens, UniProt P32245). The data set is classed as cell membranes, Membrane. The settings on record: hek293.
Data set [1] addresses T1, Amine oxidase [flavin-containing] A (Homo sapiens, UniProt P21397).
T1 sequence (P21397 whole entry): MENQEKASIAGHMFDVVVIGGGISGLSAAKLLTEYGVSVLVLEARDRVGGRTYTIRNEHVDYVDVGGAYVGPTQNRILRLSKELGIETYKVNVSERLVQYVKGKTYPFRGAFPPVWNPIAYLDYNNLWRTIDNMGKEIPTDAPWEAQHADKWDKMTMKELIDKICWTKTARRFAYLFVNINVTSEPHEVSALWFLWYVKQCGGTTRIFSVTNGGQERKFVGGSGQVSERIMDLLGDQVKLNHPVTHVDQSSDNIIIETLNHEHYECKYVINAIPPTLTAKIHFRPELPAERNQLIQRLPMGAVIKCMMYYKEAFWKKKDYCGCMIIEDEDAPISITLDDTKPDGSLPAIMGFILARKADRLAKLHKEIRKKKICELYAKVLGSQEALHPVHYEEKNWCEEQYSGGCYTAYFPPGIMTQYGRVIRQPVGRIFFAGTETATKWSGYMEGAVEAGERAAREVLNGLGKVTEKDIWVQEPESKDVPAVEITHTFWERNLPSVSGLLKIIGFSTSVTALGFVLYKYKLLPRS
As to the kind of experiment: DRUGMATRIX: Monoamine Oxidase MAO-A enzyme inhibition (substrate: Kynuramine). Also noted: species or system BTI-TN-5B1-4. The settings on record: bti-tn-5b1-4; Not Active = under 50% inhibition at 10 µM.

Data set [2] deals with T2, Neuropeptide Y receptor type 1 (Homo sapiens, UniProt P25929).
T2 sequence (P25929 whole entry): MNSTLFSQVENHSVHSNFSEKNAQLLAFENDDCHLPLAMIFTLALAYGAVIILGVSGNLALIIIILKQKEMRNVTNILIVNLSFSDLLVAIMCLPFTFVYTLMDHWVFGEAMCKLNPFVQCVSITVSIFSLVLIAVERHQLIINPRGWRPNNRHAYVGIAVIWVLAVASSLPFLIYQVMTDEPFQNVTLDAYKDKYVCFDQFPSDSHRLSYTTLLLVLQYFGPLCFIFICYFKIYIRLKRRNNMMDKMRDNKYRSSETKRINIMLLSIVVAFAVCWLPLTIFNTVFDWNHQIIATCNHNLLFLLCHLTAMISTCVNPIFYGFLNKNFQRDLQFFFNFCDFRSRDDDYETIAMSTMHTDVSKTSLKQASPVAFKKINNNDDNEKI
Format: cell membranes, Membrane. The settings on record: sk-n-mc.

Data set [3] addresses T3, Neuropeptide Y receptor type 2 (Homo sapiens, UniProt P49146).
T3 sequence (P49146 whole entry): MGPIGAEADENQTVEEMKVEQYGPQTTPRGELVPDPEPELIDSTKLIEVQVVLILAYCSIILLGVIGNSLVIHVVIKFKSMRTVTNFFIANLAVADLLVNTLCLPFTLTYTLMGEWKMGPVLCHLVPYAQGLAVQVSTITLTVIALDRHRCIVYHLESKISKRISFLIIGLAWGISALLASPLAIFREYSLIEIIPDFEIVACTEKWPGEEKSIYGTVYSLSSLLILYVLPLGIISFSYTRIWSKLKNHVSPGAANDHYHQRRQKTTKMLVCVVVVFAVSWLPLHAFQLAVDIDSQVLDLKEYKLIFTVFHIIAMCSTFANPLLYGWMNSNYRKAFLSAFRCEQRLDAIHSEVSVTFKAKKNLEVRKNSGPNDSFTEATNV
Format: cell membranes, Membrane. The note with it: kan-ts.

Data set [4] deals with 5-hydroxytryptamine receptor 1B (Rattus norvegicus, UniProt P28564). Format: cell membranes, Wistar, Cerebral cortex, Membrane.
The target in a further data set is Cytochrome P450 2C19 (Homo sapiens, UniProt P33261). The note with it: bti-tn-5b1-4. Further: in other assays of this panel Not Active means under 50% inhibition at 10 µM.
The target of a further data set is Cytochrome P450 2D6 (Homo sapiens, UniProt P10635). The note with it: bti-tn-5b1-4. Further: in other assays of this panel Not Active means under 50% inhibition at 10 µM.

This is an account of results in ChEMBL document CHEMBL1909046, “DrugMatrix in vitro pharmacology data”.

Molecules are shown by their SMILES.

For orientation: IC50 means the concentration at which inhibition is half-maximal. Usually Ki stands for the equilibrium dissociation constant of an inhibitor or competing ligand from its target.
Wherever Ki is given: in other assays of this panel Not Active means under 50% inhibition at 10 µM.

Cytochrome P450 2D6, sequence (P10635 whole entry): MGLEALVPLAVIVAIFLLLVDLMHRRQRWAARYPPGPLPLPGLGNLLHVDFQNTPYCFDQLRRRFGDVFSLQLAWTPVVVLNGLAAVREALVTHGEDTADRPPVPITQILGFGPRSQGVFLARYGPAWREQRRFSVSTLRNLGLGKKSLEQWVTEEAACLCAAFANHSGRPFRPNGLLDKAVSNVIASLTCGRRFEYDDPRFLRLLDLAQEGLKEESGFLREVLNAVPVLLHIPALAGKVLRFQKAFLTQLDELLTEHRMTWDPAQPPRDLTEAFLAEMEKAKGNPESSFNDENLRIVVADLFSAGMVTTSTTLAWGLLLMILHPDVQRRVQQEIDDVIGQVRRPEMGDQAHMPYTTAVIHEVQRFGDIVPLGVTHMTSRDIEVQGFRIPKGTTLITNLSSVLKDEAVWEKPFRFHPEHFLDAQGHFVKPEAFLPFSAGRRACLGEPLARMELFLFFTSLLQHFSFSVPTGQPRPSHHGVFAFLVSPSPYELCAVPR
Cytochrome P450 2C19, sequence (P33261 whole entry): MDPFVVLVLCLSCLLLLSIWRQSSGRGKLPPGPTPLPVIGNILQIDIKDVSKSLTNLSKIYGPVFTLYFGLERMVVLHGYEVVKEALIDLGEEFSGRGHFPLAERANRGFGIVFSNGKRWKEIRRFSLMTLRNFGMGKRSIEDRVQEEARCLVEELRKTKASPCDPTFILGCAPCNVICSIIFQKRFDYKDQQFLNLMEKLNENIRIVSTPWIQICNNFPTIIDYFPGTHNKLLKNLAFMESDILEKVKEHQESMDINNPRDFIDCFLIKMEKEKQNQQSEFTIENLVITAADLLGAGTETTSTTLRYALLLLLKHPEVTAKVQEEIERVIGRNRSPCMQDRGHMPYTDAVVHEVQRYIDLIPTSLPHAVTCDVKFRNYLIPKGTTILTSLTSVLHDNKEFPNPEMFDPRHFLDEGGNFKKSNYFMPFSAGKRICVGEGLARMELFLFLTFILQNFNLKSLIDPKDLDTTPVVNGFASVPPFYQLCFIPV
5-hydroxytryptamine receptor 1B, sequence (P28564 whole entry): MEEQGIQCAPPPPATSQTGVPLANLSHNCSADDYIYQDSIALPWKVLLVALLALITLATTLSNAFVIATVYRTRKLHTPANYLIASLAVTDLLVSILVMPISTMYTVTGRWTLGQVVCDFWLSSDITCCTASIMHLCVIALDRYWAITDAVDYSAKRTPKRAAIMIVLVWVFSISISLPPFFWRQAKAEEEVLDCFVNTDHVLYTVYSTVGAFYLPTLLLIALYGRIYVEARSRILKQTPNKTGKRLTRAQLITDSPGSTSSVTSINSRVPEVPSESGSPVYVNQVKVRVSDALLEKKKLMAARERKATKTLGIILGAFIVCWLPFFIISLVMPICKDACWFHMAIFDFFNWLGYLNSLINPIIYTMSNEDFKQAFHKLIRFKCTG
Melanocortin receptor 4, sequence (P32245 whole entry): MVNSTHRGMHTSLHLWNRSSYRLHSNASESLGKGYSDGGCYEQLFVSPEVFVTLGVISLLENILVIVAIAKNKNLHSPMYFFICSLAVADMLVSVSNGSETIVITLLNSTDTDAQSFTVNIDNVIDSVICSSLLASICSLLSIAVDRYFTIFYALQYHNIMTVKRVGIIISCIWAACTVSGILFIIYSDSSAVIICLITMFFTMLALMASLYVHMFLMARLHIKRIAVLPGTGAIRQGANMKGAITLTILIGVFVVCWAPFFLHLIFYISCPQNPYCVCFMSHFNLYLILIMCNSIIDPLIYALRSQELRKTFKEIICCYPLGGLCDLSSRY

Consider `Nn1nnc2ccccc21`, for which the IC50 result (against Melanocortin receptor 4; in data set [1]; in data set [2]; in data set [3]; in data set [4]; against Cytochrome P450 2C19) was “Not Active” throughout. Moreover, the IC50 entry against Cytochrome P450 2D6 is “Not Active”. Moreover, the Ki entry at Cytochrome P450 2C19 and at Cytochrome P450 2D6 was “Not Active” throughout.

For the compound `CC[C@]1(O)CC[C@H]2[C@@H]3CCC4=CCCC[C@@H]4[C@H]3CC[C@@]21C`, the IC50 result (at Melanocortin receptor 4; in data set [1]; in data set [2]; in data set [3]; in data set [4]; on Cytochrome P450 2D6) was “Not Active” in each case. For the same compound, the Ki entry on Cytochrome P450 2D6 is on record as “Not Active”.

`N[C@@H](Cc1ccc(F)cc1)C(=O)O`: the IC50 result (on Melanocortin receptor 4; in data set [1]; in data set [2]; in data set [3]; in data set [4]) was “Not Active” throughout.

On to `CCOC(=O)[C@H](CCc1ccccc1)N[C@@H](C)C(=O)N1Cc2ccccc2C[C@H]1C(=O)O`, for which the IC50 entry (on Melanocortin receptor 4; in data set [1]; in data set [2]; in data set [3]; in data set [4]; against Cytochrome P450 2C19) was “Not Active” each time. In addition, on Cytochrome P450 2D6, the IC50 entry is on record as “Not Active”. Besides, the Ki entry at Cytochrome P450 2C19 and at Cytochrome P450 2D6 was “Not Active” throughout.

For `O=C(c1ccccc1Cl)N1CCC(Cc2ccccc2)CC1`, the IC50 result (against Melanocortin receptor 4; in data set [1]; in data set [2]; in data set [3]; in data set [4]; against Cytochrome P450 2D6) was “Not Active” in each case. For the same compound, at Cytochrome P450 2D6, the Ki result is “Not Active”.

With `CCOC(=O)[C@H](CCc1ccccc1)N[C@@H](C)C(=O)N1CCC[C@H]1C(=O)O`, the IC50 entry (on Melanocortin receptor 4; in data set [1]; in data set [2]; in data set [3]; in data set [4]; against Cytochrome P450 2C19) was “Not Active” in each case. Moreover, on Cytochrome P450 2D6, the IC50 result is given as “Not Active”. The Ki result at Cytochrome P450 2C19 and on Cytochrome P450 2D6 was “Not Active” throughout.

On to `C[C@@H]1CC[C@H]2[C@@H](C)C(=O)O[C@@H]3O[C@@]4(C)CC[C@@H]1[C@]32OO4` [ARTEMISININ], for which the IC50 entry (at Melanocortin receptor 4; in data set [1]; in data set [2]; in data set [3]; in data set [4]) was “Not Active” each time.

With `CCC[C@@H]1C[C@@H](C(=O)N[C@@H]([C@H]2O[C@H](SC)[C@H](O)[C@@H](O)[C@H]2O)[C@H](C)Cl)N(C)C1` [CLINDAMYCIN], the IC50 entry (at Melanocortin receptor 4; in data set [1]; in data set [2]; in data set [3]; in data set [4]) was “Not Active” in each case.

Turning to `CN1C(=O)CN=C(c2ccccc2)c2cc(Cl)ccc21` [DIAZEPAM], the IC50 result (at Melanocortin receptor 4; in data set [1]; in data set [2]; in data set [3]; in data set [4]) was “Not Active” throughout.

Regarding `CN1C[C@H](C(=O)N[C@]2(C)O[C@@]3(O)[C@@H]4CCCN4C(=O)[C@H](Cc4ccccc4)N3C2=O)C[C@@H]2c3cccc4[nH]cc(c34)C[C@H]21` [DIHYDROERGOTAMINE], the IC50 entry on Melanocortin receptor 4 was “Not Active”; in data set [1] it was “Not Active”; in data set [2] it was “Not Active”; in data set [3], “Not Active”; in data set [4] (read-out: IC50), 0.846 nM; against Cytochrome P450 2D6 it was “Not Active”. Further, the Ki was 0.384 nM in data set [4] (read-out: Ki) and “Not Active” at Cytochrome P450 2D6.

In the case of `O=C(O)Cc1ccc(-c2ccccc2)cc1` [FELBINAC], the IC50 result (on Melanocortin receptor 4; in data set [1]; in data set [2]; in data set [3]; in data set [4]; on Cytochrome P450 2D6) was “Not Active” throughout. The Ki entry at Cytochrome P450 2D6 is “Not Active”.

In the case of `CCOC(=O)C1=C(C)NC(C)=C(C(=O)OC)C1c1cccc(Cl)c1Cl` (configuration not stated) [FELODIPINE], the IC50 result (against Melanocortin receptor 4; in data set [1]; in data set [2]; in data set [3]; in data set [4]) was “Not Active” each time.

On to `Cc1cn[nH]c1` [FOMEPIZOLE], for which the IC50 result (against Melanocortin receptor 4; in data set [1]; in data set [2]; in data set [3]; in data set [4]) was “Not Active” in each case.

As to `Cc1cnc(C(=O)NCCc2ccc(S(=O)(=O)NC(=O)NC3CCCCC3)cc2)cn1` [GLIPIZIDE], the IC50 result (against Melanocortin receptor 4; in data set [1]; in data set [2]; in data set [3]; in data set [4]) was “Not Active” in each case.

Turning to `COc1ccccc1OCC(O)CO` (configuration not stated) [GUAIFENESIN], the IC50 entry (at Melanocortin receptor 4; in data set [1]; in data set [2]; in data set [3]; in data set [4]) was “Not Active” each time.

Regarding `C/C=C\c1ccc(O)c(OC)c1` [ISOEUGENOL], the IC50 entry (on Melanocortin receptor 4; in data set [1]; in data set [2]; in data set [3]; in data set [4]) was “Not Active” in each case.

With `CC[C@H](C)C(=O)O[C@H]1C[C@@H](C)C=C2C=C[C@H](C)[C@H](CC[C@@H]3C[C@@H](O)CC(=O)O3)[C@H]21` [LOVASTATIN], the IC50 entry (on Melanocortin receptor 4; in data set [1]; in data set [2]; in data set [3]; in data set [4]; against Cytochrome P450 2D6) was “Not Active” throughout. Moreover, on Cytochrome P450 2D6, the Ki entry is reported as “Not Active”.

`COc1ccc2cc(CCC(C)=O)ccc2c1` [NABUMETONE]: the IC50 entry (at Melanocortin receptor 4; in data set [2]; in data set [3]; in data set [4]; at Cytochrome P450 2C19; at Cytochrome P450 2D6) was “Not Active” in each case. Besides, the Ki entry on Cytochrome P450 2C19 and on Cytochrome P450 2D6 was “Not Active” in each case.

For the compound `CNC(=C[N+](=O)[O-])NCCSCc1csc(CN(C)C)n1` [NIZATIDINE], the IC50 result (at Melanocortin receptor 4; in data set [1]; in data set [2]; in data set [3]; in data set [4]; against Cytochrome P450 2D6) was “Not Active” each time. At Cytochrome P450 2D6, the Ki result is on record as “Not Active”.

Take `COc1ccc(Cc2nccc3cc(OC)c(OC)cc23)cc1OC` [PAPAVERINE]: the IC50 result (against Melanocortin receptor 4; in data set [1]; in data set [2]; in data set [3]; in data set [4]; at Cytochrome P450 2D6) was “Not Active” throughout. Further, the Ki result on Cytochrome P450 2D6 is “Not Active”.

In the case of `OCCN1CCN(CCCN2c3ccccc3Sc3ccc(Cl)cc32)CC1` [PERPHENAZINE], the IC50 entry (at Melanocortin receptor 4; in data set [1]; in data set [2]; in data set [3]; in data set [4]) was “Not Active” in each case.

Consider `CC(C)(Sc1cc(C(C)(C)C)c(O)c(C(C)(C)C)c1)Sc1cc(C(C)(C)C)c(O)c(C(C)(C)C)c1` [PROBUCOL], for which the IC50 result (against Melanocortin receptor 4; in data set [1]; in data set [2]; in data set [3]; in data set [4]; on Cytochrome P450 2D6) was “Not Active” throughout. In addition, the Ki result on Cytochrome P450 2D6 is reported as “Not Active”.
